Paper PMC8119466, “A screen of FDA-approved drugs identifies inhibitors of protein tyrosine phosphatase 4A3 (PTP4A3 or PRL-3)” (Scientific Reports, 2021)
Where a name gives a salt, the structure may show the parent alone. Read-outs that look alike come from different tables or passages of the source.

What was measured:
Format in all cases: biochemical
recombinant PRL-1 = target: T1, recombinant PRL-1 (Homo sapiens, UniProt Q93096); assay: In vitro phosphatase assay (DiFMUP hydrolysis), PRL-1; also: test concentration or dose not given here
T1 construct: 6xHis (N, cleaved yes); made in house; host or cells: E. coli One Shot BL21 Star
T1 sequence (Q93096 1-173): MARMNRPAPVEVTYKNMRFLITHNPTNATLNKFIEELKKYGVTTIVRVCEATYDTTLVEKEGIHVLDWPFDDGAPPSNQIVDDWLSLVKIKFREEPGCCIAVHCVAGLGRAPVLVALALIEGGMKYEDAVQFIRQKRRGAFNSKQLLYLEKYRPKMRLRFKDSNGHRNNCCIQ

recombinant PRL-3 = target: T2, recombinant PRL-3 (Homo sapiens, UniProt O75365); assay: In vitro phosphatase assay (DiFMUP hydrolysis), PRL-3; also: test concentration or dose not given here
T2 construct: 6xHis (N, cleaved yes); made in house; host or cells: E. coli One Shot BL21 Star

recombinant PRL-2 = target: T3, recombinant PRL-2 (Homo sapiens, UniProt Q12974); assay: In vitro phosphatase assay (DiFMUP hydrolysis), PRL-2;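 also: PRL-2 activity read as DiFMUP hydrolysis after 20 min at room temperature with drug, enzyme first pre-reduced at 4 °C for 20 min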
T3 construct: 6xHis (N, cleaved yes); made in house; host or cells: E. coli One Shot BL21 Star
T3 sequence (Q12974 1-167): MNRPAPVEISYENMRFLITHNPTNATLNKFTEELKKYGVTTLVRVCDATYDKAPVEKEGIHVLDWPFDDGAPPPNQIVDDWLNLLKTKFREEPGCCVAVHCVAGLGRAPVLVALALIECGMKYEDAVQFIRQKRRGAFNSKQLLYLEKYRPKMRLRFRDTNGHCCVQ

[1] = FDA-approved drug screen, compared to DMSO
[2] = FDA-approved drug screen, activity compared to DMSO

T2 sequence (O75365 whole entry): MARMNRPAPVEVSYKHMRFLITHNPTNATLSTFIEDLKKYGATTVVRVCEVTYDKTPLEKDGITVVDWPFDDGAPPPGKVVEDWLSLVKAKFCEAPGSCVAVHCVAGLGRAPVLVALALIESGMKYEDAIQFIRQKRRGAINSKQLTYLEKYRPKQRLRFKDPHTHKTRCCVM

Molecule | % Phosphatase Activity (compared to DMSO) PRL-1 (recombinant PRL-1; [1]) [%] | % Phosphatase Activity (compared to DMSO) PRL-3 (recombinant PRL-3; [1]) [%] | % Phosphatase Activity (compared to DMSO) PRL-2 (recombinant PRL-2; [1]) [%] | further results
Nc1ncnc2c1ncn2[C@@H]1O[C@H](CO)[C@@H](O)[C@H]1O [Adenosine] | 100 | 87 | 93 | –
NS(=O)(=O)c1cc2c(cc1Cl)N=C(CSCc1ccccc1)NS2(=O)=O [Benzthiazide] | 111 | 99 | 115 | –
OC[C@H]1O[C@@H](O[C@@H]2[C@@H](CO)OC(O)(CO)[C@H]2O)[C@H](O)[C@@H](O)[C@H]1O (mixture of isomers) [Lactulose] | 104 | 85 | 115 | –
CS(=O)(=O)CCNCc1ccc(-c2ccc3ncnc(Nc4ccc(OCc5cccc(F)c5)c(Cl)c4)c3c2)o1 [Lapatinib] | – | – | – | % Phosphatase Activity (compared to DMSO) PRL-1 (recombinant PRL-1): 207%; % Phosphatase Activity (compared to DMSO) PRL-3 (recombinant PRL-3): 121%; % Phosphatase Activity (compared to DMSO) PRL-2 (recombinant PRL-2): 207%
COc1ccc(NS(=O)(=O)c2ccc(N)cc2)nn1 [Sulfamethoxypyridazine] | – | – | – | % Phosphatase Activity (compared to DMSO) PRL-1 (recombinant PRL-1; [2]): 94%; % Phosphatase Activity (compared to DMSO) PRL-3 (recombinant PRL-3; [2]): 77%; % Phosphatase Activity (compared to DMSO) PRL-2 (recombinant PRL-2; [2]): 109%
CN(C)[C@@H]1C(O)=C(C(N)=O)C(=O)[C@@]2(O)C(O)=C3C(=O)c4c(O)ccc(Cl)c4[C@@H](O)[C@H]3C[C@@H]12 [Demeclocycline HCl] | 90 | 67 | 86 | –
NCC[C@H](O)C(=O)N[C@@H]1C[C@H](N)[C@@H](O[C@H]2O[C@H](CN)[C@@H](O)[C@H](O)[C@H]2O)[C@H](O)[C@H]1O[C@H]1O[C@H](CO)[C@@H](O)[C@H](N)[C@H]1O [Amikacin hydrate] | 91 | 107 | 95 | –
CN1CCC[C@H]1c1cccnc1.O=C(O)C(O)C(O)C(=O)O.O=C(O)C(O)C(O)C(=O)O [Nicotine Ditartrate] | – | – | – | % Phosphatase Activity (compared to DMSO) PRL-1 (recombinant PRL-1): 95%; % Phosphatase Activity (compared to DMSO) PRL-3 (recombinant PRL-3): 96%; % Phosphatase Activity (compared to DMSO) PRL-2 (recombinant PRL-2): 96%
C[C@@H](O)[C@H]1C(=O)N2C(C(=O)[O-])=C(SC3Cn4cnc[n+]4C3)[C@H](C)[C@H]12 (stereo partly drawn) [Biapenem] | 100 | 93 | 74 | –
O=C(O)C(=O)O.[NH-][C@@H]1CCCC[C@H]1[NH-].[Pt+2] [Oxaliplatin] | 92 | 76 | 97 | –
O=C(NS(=O)(=O)c1ccc(Br)s1)c1ccc(Cl)cc1Cl [Tasisulam] | – | – | – | % Phosphatase Activity (compared to DMSO) PRL-1 (recombinant PRL-1; [2]): 94%; % Phosphatase Activity (compared to DMSO) PRL-3 (recombinant PRL-3; [2]): 99%; % Phosphatase Activity (compared to DMSO) PRL-2 (recombinant PRL-2; [2]): 87%
CCN(CC)CCNC(=O)c1cc(Cl)c(N)cc1OC.Cl [MetoclopraMide HCl] | 97 | 75 | 84 | –
CCOC(=O)CC(=O)N1CCSC1COc1ccccc1OC (stereo not drawn) [Moguisteine] | 104 | 87 | 98 | –
GHRP-2 | 98 | 100 | 102 | –
NS(=O)(=O)c1cc2c(cc1Cl)N=CNS2(=O)=O [Chlorothiazide] | 105 | 76 | 80 | –
O=C1CCc2cc(OCCCCc3nnnn3C3CCCCC3)ccc2N1 [Cilostazol] | 88 | 69 | 83 | –
CCCNCC(O)COc1ccccc1C(=O)CCc1ccccc1 (stereo not drawn) [Propafenone HCl] | 98 | 79 | 114 | –
CNC[C@H](O)c1ccc(O)c(O)c1 [Epinephrine Bitartrate] | – | – | – | % Phosphatase Activity (compared to DMSO) PRL-1 (recombinant PRL-1): 116%; % Phosphatase Activity (compared to DMSO) PRL-3 (recombinant PRL-3): 82%; % Phosphatase Activity (compared to DMSO) PRL-2 (recombinant PRL-2): 90%
OCC(O)CN1CCN(c2ccccc2)CC1 (stereo not drawn) [Dropropizine] | 91 | 76 | 110 | –
CCOC(=O)C1=C(C)NC(C)=C(C(=O)OC)C1c1cccc([N+](=O)[O-])c1 (stereo not drawn) [Nitrendipine] | 85 | 68 | 84 | –

Further lines, with some results ahead:

% Phosphatase Activity (compared to DMSO) PRL-1 (recombinant PRL-1; [1]) [%] | % Phosphatase Activity (compared to DMSO) PRL-3 (recombinant PRL-3; [1]) [%] | % Phosphatase Activity (compared to DMSO) PRL-2 (recombinant PRL-2; [1]) [%] | Molecule | further results
93 | 88 | 112 | C#C[C@]1(OC(C)=O)CC[C@H]2[C@@H]3CCC4=C[C@@H](OC(C)=O)CC[C@@H]4[C@H]3CC[C@@]21C [Ethynodiol diacetate] | –
103 | 90 | 86 | CNS(=O)(=O)CCc1ccc2[nH]cc(C3CCN(C)CC3)c2c1 [Naratriptan] | –
98 | 84 | 103 | CCN1CCC[C@H]1CNC(=O)c1cc(S(N)(=O)=O)ccc1OC [Levosulpiride] | –
81 | 89 | 95 | CC(C)n1c(/C=C/C(O)CC(O)CC(=O)O)c(-c2ccc(F)cc2)c2ccccc21 (stereo not drawn) [Fluvastatin Sodium] | –
92 | 79 | 104 | C#C[C@]1(O)CC[C@H]2[C@@H]3CCC4=CC(=O)CC[C@@H]4[C@H]3CC[C@@]21C [Norethindrone] | –
90 | 70 | 98 | COc1cc([C@@H]2c3cc4c(cc3[C@@H](O[C@@H]3O[C@@H]5CO[C@@H](C)O[C@H]5[C@H](O)[C@H]3O)[C@H]3COC(=O)[C@H]23)OCO4)cc(OC)c1O [Etoposide] | –
102 | 86 | 105 | CC(C)C[C@H](NC(=O)CNC(=O)c1cc(Cl)ccc1Cl)B(O)O [MLN2238] | –
95 | 95 | 100 | CCc1cc2c(cc1CC)CC(NC[C@H](O)c1ccc(O)c3[nH]c(=O)ccc13)C2 [Indacaterol Maleate] | –
107 | 83 | 99 | CC(C)c1nc(N(C)S(C)(=O)=O)nc(-c2ccc(F)cc2)c1/C=C/[C@@H](O)C[C@@H](O)CC(=O)O [Rosuvastatin Calcium] | –
96 | 71 | 106 | O=C(O)CCc1nc(-c2ccccc2)c(-c2ccccc2)o1 [Oxaprozin] | –
